This is an account of results in patent publication US12454675B2, “Method of increasing protein yield in mammalian cells in serum-free culture medium” (AGENCY FOR SCIENCE, TECHNOLOGY AND RESEARCH, priority 2016, dated 2025).

In assay [1] the test system is CHO-DG44 cells. The assay can be described thus: Disaccharides to support growth of CHO-DG44 cells in HyQ PF-CHO. In kind it is cell-based, Chinese Hamster. Conditions: 10 g/l sugar, 22 days. An excerpt: (§1) In (A) CHO-K1 cells were cultivated in a serum-free protein-free cell culture medium, HyQ PF-CHO, with 3.6 g/l of different sugars (maltose, sucrose, lactose, trehalose or glucose) as carbohydrate source. The viable cell densities (lined markers) and culture viabilities (marker only) of these cultures at the beginning and end of each passage over a period of 74 days were plotted. Cultures with sucrose, lactose or trehalose were terminated on Day 31 due to the decreased culture viabilities and reduced viable cell densities. The experiment was repeated with a seeding cell density of 1.0×10^6 cells/ml to obtain similar results. In (B) CHO-DG44 cells were cultivated with a seeding cell density of 1.0×10^6 cells/ml in a serum-free protein-free cell culture medium, HyQ PF-CHO, with 10 g/l of different sugars (maltose, sucrose, lactose, trehalose or glucose) as carbohydrate source. The viable cell densities (lined markers) and cell viabilities (marker only) of these cultures at the beginning and end of each passage over a period of 22 days were plotted. In (C) HEK293 cells were cultivated with a seeding cell density of 1.0×10^6 cells/ml in a protein-free chemically defined cell culture medium, PFCDM, with 10 g/l of different sugars (maltose, sucrose, lactose, trehalose or glucose) as carbohydrate source. The viable cell densities (lined markers) and cell viabilities (marker only) of these cultures at the beginning and end of each passage over a period of 22 days were plotted. Cultures with sucrose, lactose or trehalose were terminated on Day 14 due to the decreased culture viabilities and reduced viable cell densities.
To determine whether the same approach can be applied on other CHO cell lines, the use of disaccharides to support the growth of CHO-DG44 cells was evaluated. These cells were cultivated with 10 g/l of maltose, sucrose, lactose, trehalose or glucose as energy source in a serum-free protein-free cell culture medium HyQ PF-CHO. The viable cell densities and culture viabilities of these cultures at the beginning and end of each passage over a period of 22 days are shown in FIG. 1B.

Assay [2] relates to CHO-K1 cells. The assay can be described thus: Adaptation of CHO-K1 cells into HyQ PF-CHO media with different disaccharides. In kind it is cell-based, Chinese Hamster. Conditions: 3.6 g/l sugar, seeding 0.3×10^6 cells/ml, 74 days. The procedure:
Viable cell density and culture viability were determined by Trypan blue dye exclusion method using Vi-Cell XR Cell Viability Analyzer (Beckman Coulter, Brea, CA) according to manufacturer's instructions. For biochemical and other cell culture parameter analyses, 1 ml of culture sample was centrifuged at 8000 g for 10 minutes to obtain clarified supernatant. […] At each passage during the adaptation process, viable cell density and culture viability before passage and after inoculation into fresh media were determined. […] Osmolality of these culture media were determined to be between 308 and 324 mOsm/kg, well within the range for optimal mammalian cell culture. The viable cell densities and culture viabilities of these cultures at the beginning and end of each passage over a period of 74 days are shown in FIG. 1. […] However, culture viabilities and viable cell densities of the maltose culture started to pick up on Day 14. Proliferation of the cells in maltose culture then maintained over the period of the time studied, while those in the other disaccharides were terminated on Day 31 due to the lack of cell growth and depressed culture viabilities.

The subject of assay [3] is HEK293 cells. The assay can be described thus: Disaccharides to support growth of HEK293 cells in PFCDM. It is filed as cell-based. Particulars: 10 g/l sugar, seeding 1.0×10^6 cells/ml, 22 days.
From the text: as §1

In assay [4] the test system is CHO cell culture. Conditions: 3.6 g/l of monosaccharides; cited from earlier work.

Regarding `OC[C@H]1O[C@@H](O[C@H]2[C@H](O)[C@@H](O)C(O)O[C@@H]2CO)[C@H](O)[C@@H](O)[C@H]1O` (some centres unmarked) [lactose], the “proliferation in serum-free protein-free culture medium with the sugar as sugar source” value in assay [1] and in assay [2] was “not” each time. For the same compound, the “proliferation in serum-free culture medium with the sugar as sugar source” value in assay [3] was “not”.

As to `OC[C@H]1O[C@H](O[C@H]2O[C@H](CO)[C@@H](O)[C@H](O)[C@H]2O)[C@H](O)[C@@H](O)[C@@H]1O` [trehalose], the “proliferation in serum-free protein-free culture medium with the sugar as sugar source” value in assay [1] and in assay [2] was “not” each time. Besides, the “proliferation in serum-free culture medium with the sugar as sugar source” value in assay [3] is “not”.

Regarding `O=C[C@H](O)[C@@H](O)[C@@H](O)[C@H](O)CO` [galactose], the specific consumption rate in assay [4] is 0.21 ng/cell/day.

Turning to `OC[C@H]1O[C@@](CO)(O[C@H]2O[C@H](CO)[C@@H](O)[C@H](O)[C@H]2O)[C@@H](O)[C@@H]1O` [sucrose], the “proliferation in serum-free protein-free culture medium with the sugar as sugar source” value in assay [1] and in assay [2] was “not” in each case. In addition, the “proliferation in serum-free culture medium with the sugar as sugar source” value in assay [3] is “not”.

In the case of `O=C(CO)[C@@H](O)[C@H](O)[C@H](O)CO` [fructose], the specific consumption rate in assay [4] was 0.21 ng/cell/day.
